Read-outs that look alike come from different tables or passages of the source. Marks after values point to notes of the source that are not given here. Ends that are not written are not given here.
How the values were obtained:
[1] = Rat body weight during oral gavage
Protocol: (§1) A hyperlipidemic animal model was established as follows: Forty healthy adult male Sprague-Dawley (SD) rats, weighing 200±20 g, were used. A blank control group of 10 rats was fed a standard diet. The remaining 30 rats constituted the modeling group and were fed a high-fat diet (commercially available, 60% fat content).
(§2) The blank control group and the model control group were administered an equal volume of 0.9% physiological saline by oral gavage. The other two groups were administered aqueous solutions of the test samples by oral gavage.
(§3) During the gavage period, the blank control group was fed a standard diet daily, while the other groups continued receiving the high-fat diet. All rats had free access to water. Oral gavage was performed once daily for 4 consecutive weeks, and body weights were measured regularly.

hyperlipidemic rats = test: Serum lipid levels in hyperlipidemic rat model after oral gavage; format: in vivo, Sprague-Dawley (SD) rats; details: after 4 weeks of oral gavage, high-fat diet rats
Protocol: After 1-2 weeks of feeding the high-fat diet to the modeling group, blood was collected from the blank control group and the modeling group without fasting (from the inner canthus or tail). Serum was separated as soon as possible after blood collection, and serum levels of Total Cholesterol (TC), Triglycerides (TG), Low-Density Lipoprotein Cholesterol (LDL-C), and High-Density Lipoprotein Cholesterol (HDL-C) were measured. The modeling group was randomly divided into 3 groups (model control group, cholesterol-lowering peptide group, lovastatin control group). No significant differences in TC, TG, LDL-C, and HDL-C were observed among these groups.
All rats had free access to water.

[2] = rat, in vivo, po
Protocol: as §1, §2, §3

Compound | effect on rat body weight ([1]; Day 14 and Day 28 of administration, compared among groups) | Body Weight (g) At Day 0 of Administration ([1]; high-fat diet rats, oral gavage once daily, Day 0) [g] | Body Weight (g) At Day 14 of Administration ([1]; high-fat diet rats, oral gavage once daily, Day 14) [g] | Body Weight (g) At Day 28 of Administration ([1]; high-fat diet rats, oral gavage once daily, Day 28) [g] | High-Density Lipoprotein Cholesterol (HDL-C) (hyperlipidemic rats) | Low-Density Lipoprotein Cholesterol (LDL-C) (hyperlipidemic rats) | Total Cholesterol (TC) (hyperlipidemic rats) | Triglycerides (TG) (hyperlipidemic rats) | Body Weight (g) At Day 0 of Administration [2] [g] | Body Weight (g) At Day 14 of Administration [2] [g] | Body Weight (g) At Day 28 of Administration [2] [g]
CC[C@H](C)C(=O)O[C@H]1C[C@@H](C)C=C2C=C[C@H](C)[C@H](CC[C@@H]3C[C@@H](O)CC(=O)O3)[C@H]21 [Lovastatin] | no significant effect | 200.78 | 221.16 | 236.39 | 0.54** | 0.32** | 3.06** | 0.98** |  |  | 
FFFPF [FFFPF] |  |  |  |  |  |  |  |  | 200.89 | 220.75 | 237.35
